Data on 8 compounds can be found in PubChem BioAssay (NCI).

Molecules are shown by their SMILES. “And” between values parts separate entries of the source, which are not always exact repeats. Equal values may be shown once.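 Compound exposure: 48 hours, 5 concentrations, 96-well plates. GI50 is the concentration that inhibits growth by half. Definition used: TGI = concentration required for complete inhibition of growth.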

Among the test systems are T-47D breast; OVCAR-5 ovarian; COLO 205 colon; TK-10 renal; U251 CNS; CAKI-1 renal; HT29 colon; HOP-62 NSCLC; SF-295 CNS; OVCAR-4 ovarian.
What all share (experiment): NCI anticancer screen, dose series, 48 h

On to `Cn1c2ccccc2c(=O)c2c(O)cc3c(c21)CC(C1(C)CO1)O3` (configuration not stated), for which the TGI was found to be 24.9 µM in the test with T-47D breast; 23.4 µM with OVCAR-5 ovarian; 19.7 µM in the test on COLO 205 colon; 42 µM in the test with TK-10 renal; 11.7 µM in the test on U251 CNS; 17.9 µM in the test on CAKI-1 renal. The TGI in the test with HT29 colon was 20 µM; with HOP-62 NSCLC, 11.3 µM; in the test with SF-295 CNS it was 39.2 µM; in the test with OVCAR-4 ovarian it was 31.2 µM.
As to `NC1CCC(Nc2nc(NCc3cc(Cl)ccc3O)c3ncn(C4CCCC4)c3n2)CC1` (configuration not stated), the GI50 in the test with T-47D breast was 0.259 µM; in the test with OVCAR-5 ovarian, 0.242 µM; with COLO 205 colon it was 0.0965 µM; in the test on TK-10 renal it was 0.332 µM; in the test with U251 CNS it was 0.14 µM; in the test with CAKI-1 renal it was 0.295 µM. Moreover, the GI50 in the test on HT29 colon was 0.22 µM; in the test on HOP-62 NSCLC, 0.245 µM; in the test on SF-295 CNS, 0.159 µM; with OVCAR-4 ovarian, 0.183 µM. For the same compound, the TGI with T-47D breast is 0.858 µM; with OVCAR-5 ovarian, 1.16 µM; in the test with COLO 205 colon, 0.238 µM; in the test with TK-10 renal, 0.979 µM; with U251 CNS, 0.444 µM; in the test with CAKI-1 renal, 1.57 µM. Also, the TGI in the test on HT29 colon came out at 0.755 µM; with HOP-62 NSCLC it was 0.813 µM; in the test on SF-295 CNS, 0.542 µM; in the test with OVCAR-4 ovarian, 0.778 µM.
Regarding `O=C1CCCCC=C1C[N+](=O)[O-]`, the GI50 is 26.6 µM with T-47D breast; 21.9 µM with OVCAR-5 ovarian; 11.6 µM in the test on COLO 205 colon; 24.7 µM in the test on TK-10 renal; 33.9 µM with U251 CNS; 17.9 µM in the test on CAKI-1 renal. The GI50 in the test with HT29 colon is 19.3 µM; in the test on HOP-62 NSCLC it was 15.1 µM; in the test on SF-295 CNS, 46.4 µM; with OVCAR-4 ovarian, 21.4 µM. In addition, the TGI was 88.1 µM in the test on T-47D breast; 41.6 µM in the test with OVCAR-5 ovarian; 39.7 µM with COLO 205 colon; 54.8 µM with TK-10 renal; above 100 µM in the test on U251 CNS; 45.8 µM in the test with CAKI-1 renal. For the same compound, the TGI in the test on HT29 colon is 50.3 µM; with HOP-62 NSCLC it was 45.6 µM; in the test on SF-295 CNS, above 100 µM; in the test on OVCAR-4 ovarian, 46 µM.
For `O=S(=O)(c1ccc(Br)cc1)N1CCN(S(=O)(=O)c2ccc(Br)cc2)CC1`, the TGI in the test on T-47D breast, in the test on OVCAR-5 ovarian, with COLO 205 colon, in the test with TK-10 renal, with U251 CNS and with CAKI-1 renal was above 100 µM each time. In addition, the TGI in the test on HT29 colon, with HOP-62 NSCLC, in the test on SF-295 CNS and with OVCAR-4 ovarian was above 100 µM in each case.
On to `COc1cc2nc(-c3ccc(Cl)cc3)cc(OCCCN3CCCC3)c2cc1OC`, for which the GI50 with T-47D breast is 1.02 µM; in the test on OVCAR-5 ovarian it was 1.03 µM; in the test on COLO 205 colon it was 0.459 µM; with TK-10 renal, 2.33 µM; in the test on U251 CNS, 1.79 µM; in the test on CAKI-1 renal, 0.303 µM. The GI50 in the test with HT29 colon was 0.454 µM; in the test on HOP-62 NSCLC, 1.38 µM; in the test on SF-295 CNS, 1.22 µM; in the test on OVCAR-4 ovarian, 3 µM. The TGI came to 10.5 µM in the test on T-47D breast; 13.7 µM in the test with OVCAR-5 ovarian; 3.12 µM in the test on COLO 205 colon; 7.41 µM in the test with TK-10 renal; 14.5 µM in the test on U251 CNS; 4.15 µM in the test on CAKI-1 renal. In addition, the TGI was found to be 4.17 µM in the test with HT29 colon, 10.6 µM with HOP-62 NSCLC, 2.94 µM in the test with SF-295 CNS and 22.6 µM in the test with OVCAR-4 ovarian.
As for `COC(C(=O)C(O)C(C)O)C1Cc2cc3cc(OC4CC(OC5CC(O)C(O)C(C)O5)C(O)C(C)O4)c(C)c(O)c3c(O)c2C(=O)C1OC1CC(OC2CC(O)C(OC3CC(C)(O)C(O)C(C)O3)C(C)O2)C(O)C(C)O1` (configuration not stated), the GI50 in the test with T-47D breast was 17.5 ng/mL; with OVCAR-5 ovarian, 13 ng/mL and 3.6 ng/mL; with COLO 205 colon, 11.2 ng/mL and 0.702 ng/mL; in the test with TK-10 renal it was 25.2 ng/mL and 295 ng/mL; in the test on U251 CNS, 11.2 ng/mL and 0.643 ng/mL; with CAKI-1 renal it was 11.2 ng/mL and 0.362 ng/mL. For the same compound, the GI50 in the test with HT29 colon was 2.84 ng/mL; in the test with HOP-62 NSCLC, 11.2 ng/mL and 0.0327 ng/mL; with SF-295 CNS, 18.5 ng/mL and 0.389 ng/mL; in the test with OVCAR-4 ovarian it was 24.2 ng/mL and 1.92 ng/mL. Besides, the TGI in the test with T-47D breast is 15800 ng/mL; with CAKI-1 renal it was 48.4 ng/mL and 41.4 ng/mL; in the test with HT29 colon, 2030 ng/mL; with OVCAR-4 ovarian it was 269 ng/mL and 143 ng/mL.
`O=C(c1ccco1)c1c(C(F)(F)F)nc2ccc(C(F)(F)F)cc2[n+]1[O-]`: the GI50 is 36.3 µM with T-47D breast; 46.9 µM in the test on OVCAR-5 ovarian; above 100 µM in the test on COLO 205 colon; 23.9 µM in the test on TK-10 renal; 25.9 µM in the test on U251 CNS; 24.5 µM in the test on CAKI-1 renal. The GI50 with HT29 colon is above 61.4 µM; with HOP-62 NSCLC, 19.8 µM; in the test with SF-295 CNS it was 33.2 µM; with OVCAR-4 ovarian it was 24.1 µM. Also, the TGI with T-47D breast is above 87.5 µM; in the test on OVCAR-5 ovarian it was above 100 µM; with COLO 205 colon, above 100 µM; in the test on TK-10 renal it was 50 µM; with U251 CNS, 61.5 µM; in the test with CAKI-1 renal, above 83.2 µM. The TGI was above 100 µM in the test with HT29 colon, 46.3 µM in the test with HOP-62 NSCLC, above 100 µM in the test on SF-295 CNS and 68.6 µM in the test with OVCAR-4 ovarian.
On to `O=C(O)C1C2C=CC(C2)C1C(=O)O` (configuration not stated), for which the GI50 in the test with T-47D breast, in the test on OVCAR-5 ovarian, with COLO 205 colon, with U251 CNS, in the test with CAKI-1 renal and with HT29 colon was above 100 µM each time. Moreover, the GI50 in the test on HOP-62 NSCLC, in the test on SF-295 CNS and with OVCAR-4 ovarian was above 100 µM in each case. The TGI in the test with T-47D breast, in the test with OVCAR-5 ovarian, in the test with COLO 205 colon, with U251 CNS, with CAKI-1 renal and in the test with HT29 colon was above 100 µM throughout. For the same compound, the TGI with HOP-62 NSCLC, in the test with SF-295 CNS and in the test with OVCAR-4 ovarian was above 100 µM throughout.
